Source: patent publication US20210038577A1, “THIOREDOXIN REDUCTASE INHIBITORS FOR USE IN THE TREATMENT OF CANCER” (Cinda Pharma AB, priority 2018, published 2021)

Tests used:
Trx in MDA-MB-231 cells = assay: Intracellular Trx levels by ELISA in MDA-MB-231 tumor cells; assay type: cell-based, human
Experimental: The human mammary carcinoma cell line MDA-MB-231 was obtained from the American Type Culture Collection (ATCC; Manassas, Va.) and cultured in Leibovitz's L-15 medium (Thermo Fisher Scientific, USA) supplemented with 10% (v/v) heat-inactivated fetal bovine serum (Thermo Fisher Scientific, USA), 10 mM HERBS (Sigma), 25 mM sodium bicarbonate (Sigma), 1× Glutamax (Sigma), 100 IU/mL penicillin and 100 μg/ml streptomycin (Sigma) in a 5% CO2 atmosphere at 37° C. Briefly, cells were seeded at 7500 cells/well in 96-well plates. After 24 h, the cells were treated either with different concentrations of test compounds or DMSO (0.5%; vehicle control) respectively and further incubated at 37° C. in a CO2 incubator. Culture supernatants were collected at different time points, like, immediately after cell plating (−24 h), 0 h (at the time of compound addition), and 1 h, 6 h, 12 h, 24 h, 48 h, 72 h and 96 h following compound addition. Subsequently, cells were lysed from corresponding wells with 0.1% Triton X-100 and the lysates were collected. Trx levels were measured in both the culture supernatants and cell lysates by ELISA using TXN (Human) ELISA Kit [Abnova; Cat no: KA0535] following manufacturer instruction. A standard curve was prepared using different concentrations of the Trx standard (provided in the kit) with the help of GraphPad Prism software (version 5.0; La Jolla, Calif., USA). Trx concentrations for the unknown samples were calculated from the standard curve. The data were expressed as the means of three replicates.

GR from baker's yeast = biological target: T1, GR from baker's yeast (Saccharomyces cerevisiae, UniProt P41921); assay: Glutathione reductase (GR) activity assay; assay type: biochemical; settings: Molar concentration
T1 sequence (P41921 17-483 limits assumed): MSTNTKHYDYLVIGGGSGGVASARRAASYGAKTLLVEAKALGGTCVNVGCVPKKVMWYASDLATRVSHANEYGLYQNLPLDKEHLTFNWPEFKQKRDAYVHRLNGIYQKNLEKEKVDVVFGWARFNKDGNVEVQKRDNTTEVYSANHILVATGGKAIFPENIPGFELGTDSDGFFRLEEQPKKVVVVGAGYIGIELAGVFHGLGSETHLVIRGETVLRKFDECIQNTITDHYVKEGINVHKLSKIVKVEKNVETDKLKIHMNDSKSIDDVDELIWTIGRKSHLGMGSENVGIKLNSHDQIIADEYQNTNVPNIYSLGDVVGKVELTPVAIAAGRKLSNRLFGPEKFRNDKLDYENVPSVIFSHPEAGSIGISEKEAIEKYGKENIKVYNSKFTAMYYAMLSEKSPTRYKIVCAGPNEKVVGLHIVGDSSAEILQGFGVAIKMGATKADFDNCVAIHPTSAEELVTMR
Experimental: GR activity was determined incubating compounds at various concentrations with GR from baker's yeast and 250 μM NADPH for 15 minutes, whereupon 10 mM oxidized glutathione (GSSG) was added to each well and NADPH consumption was followed at OD340. Activity was determined following the consumption of NADPH over time and normalized to DMSO only (Vehicle) and GR lacking (blank) controls.

[1] = system: NB-4 (a leukaemia cell line); assay: MTT cell viability assay, NB-4; assay type: cell-based; settings: 72 hrs
Experimental: (§1) MDA-MB-453 (ATCC HTB-131) cells were grown in media with sodium pyruvate. MDA-MB-231 cells (ATCC HTB-26) were grown in DMEM media or L-15 supplemented with Glutamax (1×). U87-MG (ATCC HTB-14) and MDA-MB-468 (ATCC HTB-132) cells were cultured in DMEM supplemented with Glutamax (1×). NB-4 (DSMZ ACC-207) cells were cultured in RPMI 1640.
(§2) Breast cancer and glioblastoma cell lines were plated 4000 cells/well in 96-well plates in the presence of 10% FBS media. The following day cells were treated with various concentrations of the example compounds (0.1% DMSO final) and incubated for 72 hrs. After the incubation an MTT assay was performed to access cell viability. Percent of viability was determined using DMSO vehicle and no cell (blank) controls.

recombinant TrxR [2] = biological target: T2, recombinant TrxR (Rattus norvegicus, UniProt O89049); assay: Sec-independent SecTRAP activity (Juglone assay); settings: compound at the concentration that achieves 100% inhibition of TrxR in the DTNB assay
T2 sequence (O89049 1-499): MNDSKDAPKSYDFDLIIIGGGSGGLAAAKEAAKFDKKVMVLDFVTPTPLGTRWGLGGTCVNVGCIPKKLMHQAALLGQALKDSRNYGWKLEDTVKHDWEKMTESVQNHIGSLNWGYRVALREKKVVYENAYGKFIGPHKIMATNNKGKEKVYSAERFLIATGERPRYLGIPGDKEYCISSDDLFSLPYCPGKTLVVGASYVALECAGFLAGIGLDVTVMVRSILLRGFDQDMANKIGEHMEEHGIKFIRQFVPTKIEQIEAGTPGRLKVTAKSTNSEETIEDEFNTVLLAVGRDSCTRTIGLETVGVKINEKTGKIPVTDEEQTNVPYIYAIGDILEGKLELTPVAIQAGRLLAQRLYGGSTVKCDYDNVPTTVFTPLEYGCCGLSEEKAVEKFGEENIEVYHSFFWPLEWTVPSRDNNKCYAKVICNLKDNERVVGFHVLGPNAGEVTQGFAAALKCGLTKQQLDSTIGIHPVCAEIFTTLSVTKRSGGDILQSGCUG
Experimental: (§3) SecTRAP forming capabilities of compounds with TrxR was determined using the Juglone Assay. Compounds were incubated in the presence of recombinant TrxR and 250 μM NADPH for 15 minutes at concentrations fully inhibiting enzyme activity in the DTNB assay. 100 μM juglone was then added to each well and NADPH consumption was followed at OD340 to determine sustained reductive capacity at the N-terminus of TrxR (SecTRAP Activity). Activity was determined following the consumption of NADPH over time and normalized to DMSO only (Vehicle) and TrxR lacking (blank) controls.
(§4) Aliquots were used in a DTNB assay to determine inhibition of enzyme activity. […] Incubation samples were then added to a reaction buffer containing 250 μM NADPH and 100 μM juglone, whereupon NADPH consumption was followed at OD340 to determine sustained SecTRAP activity.
(§5) Higher % values for juglone activity (juglone reduction activity) in this assay are indicative of stronger prooxidant activity.

MDA-MB-231 cells = assay: Alamar-Blue cell viability assay; assay type: cell-based, human; settings: 72 hrs
Experimental: MDA-MB-231 cells were plated 2000 cells/well in 96-well black optical plates in the presence of 10% FBS media containing 25 nM selenite. The following day cells were treated with various concentrations of compounds (0.1% DMSO final) and incubated for 72 hrs. After the incubation Alamar Blue reagent was added to each well and incubated for additional 3 hrs. Fluorescence was read ex:530 nm/em:590 nm, and percent of viability was determined using DMSO vehicle and no cell (blank) controls.

[3] = system: MDA-MB-468 (a breast cancer cell line); assay: MTT cell viability assay, MDA-MB-468; assay type: cell-based; settings: 72 hrs
Experimental: as §1, §2

[4] = system: U-87 MG (a glioblastoma cell line); assay: MTT cell viability assay, U-87 MG; assay type: cell-based; settings: 72 hrs
Experimental: as §1, §2

[5] = system: MDA-MB-231 (a breast cancer cell line); assay: MTT cell viability assay, MDA-MB-231; assay type: cell-based, human; settings: 72 hrs
Experimental: as §1, §2

recombinant TrxR [6] = biological target: T2, recombinant TrxR
Experimental: as §3, §4, §5

## CC[S+]([O-])c1nc(OC)ccc1[N+](=O)[O-] (stereo not drawn) [OT-1131, 2-(ethylsulfinyl)-6-methoxy-3-nitropyridine]
Trx in MDA-MB-231 cells; at 1 μM and 10 μM
  intracellular levels of Trx compared with control cells: reduced
  time after which intracellular Trx is reduced compared with control cells: ≤ 6 h

## COc1ccc([N+](=O)[O-])c(S(=O)(=O)Cc2ccccc2)n1 [OT-1011, 2-Benzylsulfonyl-6-methoxy-3-nitropyridine]
GR from baker's yeast
  IC50: > 30000 nM
[1]
  IC50: 1210 nM
Trx in MDA-MB-231 cells; at 1 μM and 10 μM
  intracellular levels of Trx compared with control cells: reduced
  time after which intracellular Trx is reduced compared with control cells: 6 to 12 h
Recombinant TrxR [2]
  Juglone Act (% @ 100% DTNB inhibition): 83.67%

## CC(=O)OC[C@H]1O[C@@H]([S-])[C@H](OC(C)=O)[C@@H](OC(C)=O)[C@@H]1OC(C)=O.CCP(CC)CC.[Au+] [Auranofin, reference compound]
GR from baker's yeast
  IC50: > 30000 nM
MDA-MB-231 cells
  IC50: 1400 nM
[3]
  IC50: 310 nM
[4]
  IC50: 1720 nM
[5]
  IC50: 1660 nM
Recombinant TrxR [6]
  classification as SecTRAP forming agent: SecTRAP-forming agent

## O=C1C=C[C@H]2[C@@H]3C(=O)N(Cc4ccccc4)C(=O)[C@@H]3[C@@H]1N2Cc1ccccc1 (relative stereo) [OT-2056, exo-4,11-Dibenzyl-4,11-diazatricyclo[5.3.1.0^2,6]undec-9-ene-3,5,8-trione]
GR from baker's yeast
  IC50: > 30000 nM
[1]
  IC50: 420 nM
Trx in MDA-MB-231 cells; at 1 μM
  time after which intracellular Trx is reduced compared with control cells: 24 h
Trx in MDA-MB-231 cells; at 1 μM and 10 μM
  intracellular levels of Trx compared with control cells: reduced
Trx in MDA-MB-231 cells; at 10 μM
  time after which intracellular Trx is reduced compared with control cells: 6 h
Recombinant TrxR [2]
  Juglone Act (% @ 100% DTNB inhibition): 107.692%

## COC(=O)CCS(=O)(=O)c1nc(OC)ccc1[N+](=O)[O-] [OT-1113, methyl 3-((6-methoxy-3-nitropyridin-2-yl)sulfonyl)propanoate]
GR from baker's yeast
  IC50: > 30000 nM
[1]
  IC50: 1170 nM
Trx in MDA-MB-231 cells; at 1 μM
  time after which intracellular Trx is reduced compared with control cells: 48 h
Trx in MDA-MB-231 cells; at 1 μM and 10 μM
  intracellular levels of Trx compared with control cells: reduced
Trx in MDA-MB-231 cells; at 10 μM
  time after which intracellular Trx is reduced compared with control cells: 65 h
Recombinant TrxR [2]
  Juglone Act (% @ 100% DTNB inhibition): 91.16%

## COc1ccc([N+](=O)[O-])c(S(=O)(=O)c2ccccn2)n1 [OT-1012, 6-Methoxy-3-nitro-2-(pyridin-2-ylsulfonyl)pyridine]
GR from baker's yeast
  IC50: > 30000 nM
[4]; Homo sapiens, U-87 MG
  IC50: 8200 nM
Trx in MDA-MB-231 cells; at all doses
  intracellular levels of Trx compared with control cells: reduced
  time after which intracellular Trx is reduced compared with control cells: 12 h
Recombinant TrxR [2]
  Juglone Act (% @ 100% DTNB inhibition): 89.8%
